Assay results as given in patent US10975049B2, “Nicotinyl alcohol ether derivative, preparation method therefor, and pharmaceutical composition and uses thereof” (Institute of Materia Medica, Chinese Academy of Medical …, priority 2016, dated 2021).
One block for each compound: values may come before it.

Legend:
PD-L1 protein [1] = target: T1, PD-L1 protein (Homo sapiens (Human), UniProt Q9NZQ7); test: Relieving the inhibition of IFNγ by ligand PD-L1 in human PBMC; type: cell-based; conditions: 72 h
T1 sequence (Q9NZQ7 19-290): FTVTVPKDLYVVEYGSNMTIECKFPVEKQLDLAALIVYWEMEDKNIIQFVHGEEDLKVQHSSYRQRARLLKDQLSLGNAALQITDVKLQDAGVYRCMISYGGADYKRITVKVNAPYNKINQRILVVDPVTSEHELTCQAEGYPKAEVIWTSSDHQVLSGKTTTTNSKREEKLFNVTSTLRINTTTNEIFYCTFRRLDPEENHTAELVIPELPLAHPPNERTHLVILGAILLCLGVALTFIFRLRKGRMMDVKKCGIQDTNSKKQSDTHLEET
Method: The expression level of IFNγ can reflect the proliferative activity of T lymphocytes. Using the extracted human PBMC (peripheral blood mononuclear cell), on the basis that T lymphocyte could be activated by the anti-CD3/anti-CD28 antibody, the ligand PD-L1 was added to the inhibit T lymphocyte, the example compounds' capacity of relieving the inhibition by the PD-L1 was investigated.
The specific procedure is as follows. DAKEWE human lymphocyte separation solution (DKW-KLSH-0100) was used to extract PBMC from human whole blood, and PBMC was inoculated into 96 well plate, with 3×10^5 cells per well. […] After 72 h, the expression level of IFNγ in the supernatant was detected by Cisbio IFNγ test kit.

[2] = tested on: high metastatic melanoma B16F10; test: Lung metastasis model of high metastatic melanoma B16F10; type: in vivo, C57BL/6 mice; conditions: for Tumor number X ± SD: lung; for TGI % (tumor growth inhibition rate): tumor number
Method: The method in B16F10 lung metastasis model was as follows. The cultured B16F10 tumor cells were digested and centrifuged and washed for two times with sterile physiological saline and then counted. And the cell concentration was adjusted to 2.5×10^6/ml by physiological saline. 0.2 ml of cells were injected into the C57BL/6 mice through the tail vein, and the tumor cells will gather in the lung of the mice. After inoculation, the animals were randomly divided into two groups in next day. Each group had 6-7 mice. After weighing, the animals were dosed once each day. After 3 weeks, the mice were weighed and killed, the lung tissue was collected and weighed, and the number of lung tumors was counted after being fixed by the Bouin's Fluid. Finally, the tumor growth inhibition rate was calculated, and the tumor growth inhibition rate was used to evaluate the level of anti-tumor effect.
(§1) In the study of the mechanism of the above models, the method of flow cytometry was adopted in measuring the total cell proportion of T cells of various types. The specific steps were as follows. The samples were treated at first. For blood tissue, the orbital blood was taken. The red cell lysate was used to remove the red blood cells, and then the PBS buffer was used for wash. After being washed, the cells were collected. For the tumor and spleen, the tissues were grinded with a homogenizer, and then diluted with PBS buffer, then filtered by 300 meshes of screen. After the number of cells was counted for each sample, 1×10^6 cells were added into EP tube and stained for flow antibody. After incubation for 1 h on ice, each sample was washed 2 times with PBS buffer. The cell population was analyzed by VERSE flow instrument of BD Company. The total number of cells in tumor tissue was 1×10^5 and the total number of cells in blood and spleen tissues was 1×10^4. The ratio of T cells to total number of cells was analyzed after flow cytometry.

mouse colon cancer MC38 = test: Subcutaneous xenograft model of mouse colon cancer MC38; type: in vivo, C57BL/6 or Bablc mice
Method: (§2) The method in subcutaneous xenograft tumor was as follows. The cultured specific tumor cells were digested and collected by centrifugation, and washed with sterile physiological saline for two times and then counted. The cell concentration was adjusted to 5×10^6/ml by physiological saline, and 0.2 ml of cell suspension was inoculated to the right armpit of C57BL/6 or Bablc mice. After inoculation, the animals were randomly divided into two groups in next day. Each group had 6-7 mice. After weighing, the animals were dosed once each day to monitor tumor size. When the tumor size reached to a certain size, the mice was weighed and blood was collected from mice orbit and then the mice were killed by removing the neck. The tumor tissue, thymus tissue and spleen tissue were collected and weighed respectively. Finally, the tumor growth inhibition rate was calculated, and the tumor growth inhibition rate was used to evaluate the level of anti-tumor effect.

PD-L1 protein [3] = target: T1, PD-L1 protein; test: Interaction with PD-L1 protein tested by Biacore (SPR); type: binding
Description: Surface plasmon is a kind of electromagnetic wave on the surface of metal, produced by the interaction of photon and electron in free vibration. Surface plasmon resonance (SPR) is an optical phenomenon that occurs on the surface of two kinds of media, which can be induced by photon or electron. The phenomenon of total reflection of light from light dense medium into light scattering medium will form evanescent wave into light scattering medium. When the total reflected evanescent wave meets the plasma wave on the metal surface, the resonance may occur, and the energy of reflected light decreases and the resonance peak appears on the reflected light energy spectrum. This resonance is called the surface plasmon resonance. The incident angle of the surface plasmon resonance is called the SPR angle. The SPR biosensor provides a sensitive, real-time, non-label detection technique for monitoring the interaction of molecules. The sensor detects the change of the SPR angle, and SPR is also related to the refractive index of the metal surface. When an analyte is bond on the surface of the chip, it leads to the change of the refractive index of the chip surface, which leads to the change of the SPR angle. […] In the interaction analysis, the change of SPR angle is recorded on the sensor map in real time. […]

Lewis lung cancer = test: Mouse Lewis lung cancer hydrothorax model; type: in vivo, C57BL/6 mice; conditions: 10 mg
Method: The method in Lewis lung cancer hydrothorax model was as follows: The subcutaneous xenograft tumor of Lewis lung cancer was homogenized and washed for two times with sterile physiological saline, and the cell concentration was adjusted to 2.5×10^5/ml by physiological saline. 0.2 ml of cells were injected into the thoracic cavity of C57BL/6 mice. After inoculation, the animals were randomly divided into two groups in next day. Each group had 6-7 mice. After weighing, the animals were dosed once each day. Animals were sacrificed when the weight of the animals in the control group suddenly dropped. The liquid in thoracic cavity was extracted with syringe and the volume of fluid was recorded.

[4] = tested on: high metastatic melanoma B16F10; test: Subcutaneous xenograft model of high metastatic melanoma B16F10; type: in vivo, C57BL/6 or Bablc mice; conditions: for TGI % (tumor growth inhibition rate): tumor weight
Method: as §2, §1

mouse breast cancer EMT6 = test: Subcutaneous xenograft model of mouse breast cancer EMT6; type: in vivo, C57BL/6 or Bablc mice
Method: as §2

IC50 (PD-L1 protein [1]): 0.18 nM | relief of the inhibition of PD-L1 to expression level of IFNγ (PD-L1 protein [1]; at 10 nM): partially relieved | kd (PD-L1 protein [3]; PBS-P+, pH7.4, 0.01% DMSO, NTA chip): 2.815e-05 s⁻¹ | Kd (PD-L1 protein [3]; unit inferred, read-out: affinity kD value): 0.0203 nM
SMILES: O=C(O)[C@H](CO)NCc1cc(Cl)c(OCc2cccc(-c3ccccc3)c2Br)cc1OCc1cccnc1 [Example 4, (S)—N-(4-(2-bromo-3-phenylbenzyloxy)-5-chloro-2-(pyridin-3-yl-methyleneoxy)benzyl) serine]
percentage of lymphocyte in mouse blood ([2]; result in words): increase | TGI % (tumor growth inhibition rate) (mouse colon cancer MC38; 2.5 mg/kg): 102.3% | Tumor weight(g) Mean ± SD (mouse colon cancer MC38; 2.5 mg/kg): 3.25 ± 0.61 g | Body weight (g) Mean ± SD Begin (mouse colon cancer MC38; 2.5 mg/kg, begin): 18.0 ± 0.4 g | Body weight (g) Mean ± SD End (mouse colon cancer MC38; 2.5 mg/kg): 21.9 ± 0.7 g | TGI % (tumor growth inhibition rate) (mouse colon cancer MC38; 5 mg/kg): 12.7% | Tumor weight(g) Mean ± SD (mouse colon cancer MC38; 5 mg/kg): 2.78 ± 0.44 g | Body weight (g) Mean ± SD End (mouse colon cancer MC38; 5 mg/kg): 22.8 ± 0.6 g | TGI % (tumor growth inhibition rate) (mouse colon cancer MC38; 10 mg/kg): 32.7% | Tumor weight(g) Mean ± SD (mouse colon cancer MC38; 10 mg/kg): 2.14 ± 0.78 g | Body weight (g) Mean ± SD End (mouse colon cancer MC38; 10 mg/kg): 21.5 ± 0.8 g | TGI % (tumor growth inhibition rate) (mouse colon cancer MC38; 20 mg/kg): 41.2% | Tumor weight(g) Mean ± SD (mouse colon cancer MC38; 20 mg/kg): 1.87 ± 0.90 g | Body weight (g) Mean ± SD End (mouse colon cancer MC38; 20 mg/kg): 20.9 ± 1.1 g

SMILES: O=C([O-])[C@H](CO)NCc1cc(Cl)c(OCc2cccc(-c3ccccc3)c2Br)cc1OCc1cccnc1.[Na+] [Example 4 sodium salt, (S)-Sodium N-(4-(2-bromo-3-phenylbenzyloxy)-5-chloro-2-(pyridin-3-yl-methyleneoxy)benzyl) serinate]
hydrothorax incidence rate (Lewis lung cancer): 33% | hydrothorax volume (mean) (Lewis lung cancer): 0.2 mL | hydrothorax incidence rate (Lewis lung cancer; listed as sodium salt of Example 4 compound): 33% | number of lung metastases ([2]; 15 mg/kg dose, result in words): significantly inhibit | Body weight (g) Mean ± SD Begin ([2]; 15 mg/kg): 20.1 ± 0.9 g | Body weight (g) Mean ± SD End ([2]; 15 mg/kg): 21.5 ± 1.2 g | Tumor number X ± SD ([2]; 15 mg/kg): 12 ± 3 | TGI % (tumor growth inhibition rate) ([2]; 15 mg/kg): 42.3% | Body weight (g) Mean ± SD Begin ([2]; 45 mg/kg): 20.3 ± 0.6 g | Body weight (g) Mean ± SD End ([2]; 45 mg/kg): 21.4 ± 0.3 g | Tumor number X ± SD ([2]; 45 mg/kg): 19 ± 15 | TGI % (tumor growth inhibition rate) ([2]; 45 mg/kg): 9.5% | CD3+ percentage of T lymphocyte in mouse blood ([2]; 15 mg): 29.0 ± 3.7% | CD4+ percentage of T lymphocyte in mouse blood ([2]; 15 mg): 17.8 ± 2.4% | CD8+ percentage of T lymphocyte in mouse blood ([2]; 15 mg): 9.6 ± 0.8% | CD3+ percentage of T lymphocyte in mouse blood ([2]; 45 mg): 23.2 ± 3.6% | CD4+ percentage of T lymphocyte in mouse blood ([2]; 45 mg): 14.7 ± 2.5% | CD8+ percentage of T lymphocyte in mouse blood ([2]; 45 mg): 7.6 ± 1.3% | antitumor effect in combination with Cyclophosphamide (CTX) (mouse colon cancer MC38; result in words): synergistic antitumor effect | inhibition effect on subcutaneous xenograft of MC38 (mouse colon cancer MC38; result in words): significant inhibition effect | Tumorweight(g) X ± SD ([4]; 15 mg/kg): 0.93 ± 0.89 g | Body weight (g) Mean ± SD Begin ([4]; 15 mg/kg): 20.3 ± 0.4 g | Body weight (g) Mean ± SD End ([4]; 15 mg/kg): 21.8 ± 2.1 g | TGI % (tumor growth inhibition rate) ([4]; 15 mg/kg): 64.11% | Tumorweight(g) X ± SD ([4]; 45 mg/kg): 2.57 ± 0.85 g | Body weight (g) Mean ± SD Begin ([4]; 45 mg/kg): 20.4 ± 0.9 g | Body weight (g) Mean ± SD End ([4]; 45 mg/kg): 23.8 ± 1.4 g | TGI % (tumor growth inhibition rate) ([4]; 45 mg/kg): 0.23% | proportion of lymphocytes in the spleen samples ([4]; result in words): increase | proportion of tumor-infiltrating lymphocytes ([4]; result in words): increase | CD4+ (%) T lymphocytes in spleen ([4]; spleen, 15 mg): 27.0 ± 1.8% | CD8+ (%) T lymphocytes in spleen ([4]; spleen, 15 mg): 13.6 ± 1.8% | CD3+ (%) tumor-infiltrating T lymphocytes ([4]; tumor, 15 mg): 13.3 ± 6.9% | CD4+ (%) tumor-infiltrating T lymphocytes ([4]; tumor, 15 mg): 7.2 ± 3.4% | CD8+ (%) tumor-infiltrating T lymphocytes ([4]; tumor, 15 mg): 3.9 ± 1.4% | TGI % (tumor growth inhibition rate) (mouse breast cancer EMT6; 1.5 mg/kg): 13.1% | Tumorweight(g) X ± SD (mouse breast cancer EMT6; 1.5 mg/kg): 1.5 ± 0.61 g | Body weight (g) Mean ± SD Begin (mouse breast cancer EMT6; 1.5 mg/kg): 18.4 ± 0.9 g | Body weight (g) Mean ± SD End (mouse breast cancer EMT6; 1.5 mg/kg): 22.0 ± 1.6 g | TGI % (tumor growth inhibition rate) (mouse breast cancer EMT6; 5 mg/kg): 20.2% | Tumorweight(g) X ± SD (mouse breast cancer EMT6; 5 mg/kg): 1.37 ± 0.23 g | Body weight (g) Mean ± SD Begin (mouse breast cancer EMT6; 5 mg/kg): 18.4 ± 0.4 g | Body weight (g) Mean ± SD End (mouse breast cancer EMT6; 5 mg/kg): 21.0 ± 1.6 g | TGI % (tumor growth inhibition rate) (mouse breast cancer EMT6; 10 mg/kg): 22.3% | Tumorweight(g) X ± SD (mouse breast cancer EMT6; 10 mg/kg): 1.34 ± 0.34 g | Body weight (g) Mean ± SD Begin (mouse breast cancer EMT6; 10 mg/kg): 18.4 ± 0.6 g | Body weight (g) Mean ± SD End (mouse breast cancer EMT6; 10 mg/kg): 21.6 ± 1.3 g | TGI % (tumor growth inhibition rate) (mouse breast cancer EMT6; 15 mg/kg): 14.7% | Tumorweight(g) X ± SD (mouse breast cancer EMT6; 15 mg/kg): 1.47 ± 0.65 g | Body weight (g) Mean ± SD Begin (mouse breast cancer EMT6; 15 mg/kg): 18.5 ± 0.4 g | Body weight (g) Mean ± SD End (mouse breast cancer EMT6; 15 mg/kg): 22.0 ± 1.1 g | inhibition effect on mouse breast cancer EMT6 (mouse breast cancer EMT6; dose of 10 mg): 20% | inhibition effect on mouse breast cancer EMT6 (mouse breast cancer EMT6; dose of 15 mg): 22%
